This note sets out measurements from paper PMC9937993, “Structures of the NDP-pyranose mutase belonging to glycosyltransferase family 75 reveal residues important for Mn^2+ coordination and substrate binding” (The Journal of Biological Chemistry, 2023).

SMILES strings stand for the structures.

Holding throughout (type): binding
The target in assay [1] is MtdL (Marinactinospora thermotolerans, UniProt G8HX37, T13P). Description: ITC.
In assay [2] the target is MtdL (Marinactinospora thermotolerans, UniProt G8HX37, N42D). In words: ITC.
Assay [3] has as its target T1, MtdL (Marinactinospora thermotolerans, UniProt G8HX37).
T1 sequence (G8HX37 1-376): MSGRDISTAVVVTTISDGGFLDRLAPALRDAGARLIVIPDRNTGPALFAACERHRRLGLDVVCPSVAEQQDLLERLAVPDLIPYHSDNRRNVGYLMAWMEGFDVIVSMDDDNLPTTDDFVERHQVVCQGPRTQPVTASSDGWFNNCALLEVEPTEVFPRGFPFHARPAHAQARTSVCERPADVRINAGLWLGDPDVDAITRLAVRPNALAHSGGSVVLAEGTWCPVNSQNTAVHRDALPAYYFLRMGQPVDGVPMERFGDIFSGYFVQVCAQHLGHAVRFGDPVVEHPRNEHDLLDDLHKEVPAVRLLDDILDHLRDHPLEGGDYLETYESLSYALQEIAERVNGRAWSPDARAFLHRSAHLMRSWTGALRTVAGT
In words: ITC; crystal structure of GDP·Mn2+·MtdL at […] Å. In general terms: ITC needs no label: the signal is the heat of the interaction.

One may read the Kd as the concentration at which binding is half-saturated. Read a high Kd as a looser complex. As for `Nc1nc2c(ncn2[C@@H]2O[C@H](COP(=O)(O)OP(=O)(O)O)[C@@H](O)[C@H]2O)c(=O)[nH]1` [GDP], the dissociation constant Kd at MtdL [1] is ~5660 nM; on MtdL [2], ~1240 nM; at MtdL [3], ~200 nM.
